Data: patent publication US20080207600A1, “Pharmaceutical Combination for the Treatment of Cns Functional Disorders” (priority 2004, published 2008)
Marks after values point to notes of the source that are not given here.

Test system: spontaneous motion activity of rats
Assay: Depression of spontaneous motion activity (SMA) in "open field" test
Assay type: in vivo
Conditions: for Spontaneous activity (total values) b) after haloperidol administration: rats, i/p., open field 2 minutes, 10 minutes after administration, M±σ
Text: The presently-known clinical methods of haloperidol administration are: intravenous, intramuscular and oral. […] In theory, it is possible to improve the efficacy of the medicine, to reduce the single-administration dosage (through elimination of the effect of “first passage” through the liver) and to alleviate adverse somatic side effects.
The Applicant used pharmacological combination of intraperitoneally (i/p.) administered haloperidol with nasally applied CO-generating composition.
The experiments were performed on 24 puberty-age white rats (of no particular breed), body mass: 100-120 grams. Depression in SMA of the animals, as produced by i/p. drug administration, was compared with SMA depression produced by i/p. administration combined with nasal administration of CO-generating composition on the basis of a hem-oxygenase enzyme form. SMA of each animal was evaluated as total sum of values obtained within 2 minutes of “open field” test (in terms of the number of poles/supports, number of ring exercises and cleanings), prior to drug administration, and 10 minutes after drug administration.
The experimental animals were subdivided into 4 groups:
Group No. 1: controls (6 animals), no exposure;
Group No. 2: haloperidol (7 animals), i/p., 0.2 mg/kg;
Group No. 3: haloperidol (5 animals), i/p., 0.05 mg/kg;
Group No. 4: haloperidol (6 animals), i/p., 0.05 mg/kg, in pharmacological combination with CO-generating composition.
Haloperidol was administered by i/p. route within the physiological solution; CO-generating composition was administered nasally.

[1] = preliminary studies, intraperitoneal, 0.2 mg/kg

O=C(CCCN1CCC(O)(c2ccc(Cl)cc2)CC1)c1ccc(F)cc1 [haloperidol]
Persistence of haloperidol-dependant depression in motive responses [1]: 53.5 ± 7.7 min
Time to development of haloperidol-dependant depression in motive responses [1]: 4.2 ± 1.8 min
Spontaneous activity (total values) b) after haloperidol administration (0.05 mg/kg): 24 ± 3**^)
Spontaneous activity (total values) b) after haloperidol administration (0.2 mg/kg): 3 ± 1*^)
